From EP0211863B1, “VITAMIN D DERIVATIVES AND METHODS FOR PREPARING SAME” (WISCONSIN ALUMNI RESEARCH FOUNDATION, priority 1985, dated 1986)

Columns and labels:
[1] = Bone calcium mobilization activity (serum calcium by atomic absorption); assay type: in vivo; conditions: male weanling rats on low calcium, vitamin D deficient diet for 3 weeks; 650 pmole intrajugularly, 7 h prior to sacrifice; ± standard deviation from the mean
Experimental: Bone calcium mobilization activity of 1α,25-(OH)₂-26-homo-D₃ compounds
Male weanling rats were purchased from Holtzman Co., Madison, Wis. and fed ad libitum a low calcium, vitamin D deficient diet as described by Suda et al (J. Nutrition 100: 1049, 1970) and water for 3 weeks. The rats were then divided into 4 groups of 6 each and were intrajugularly given respectively 650 pmole of either 1α,25-(OH)₂-26-homo-D₃, 1α,25-(OH)₂-(22E)Δ²²-26-homo-D₃ or 1α,25-(OH)₂D₃ dissolved in 0.05 ml of 95% ethanol 7 h prior to sacrifice. […] The rats in the control group were given 0.05 ml of ethanol vehicle in the same manner. They were killed by decapitation, the blood was collected and centrifuged to obtain serum. Serum calcium concentration was determined with an atomic absorption spectrophotometer (Perkin-Elmer Model 214) in presence of 0.1% lanthanum chloride.

[2] = system: human promyelocytic leukemia cells (HL-60 cells); test: NBT-reduction assay for differentiation; assay type: cell-based; conditions: four days (96 hr) incubation, read-out: concentration to achieve 60% differentiation
Experimental: (§1) The human promyelocytic leukemia cell line (HL-60) was maintained in suspension culture in RPMl 1640 medium (Gibco, Grand Island, NY) supplemented with 10% (v/v) heat inactivated fetal calf serum, 100 ug/ml penicillin, 100 µg/ml streptomycin and 0.25 µg/ml fungizone. Cells were cultured in a humidified atmosphere with 5% CO₂. Cell viability was assessed by standard assays, e.g. trypan blue exclusion. Morphological evaluations were done on Wright stained slide preparations.
(§2) Cells were seeded at 1.5 - 2 x 10⁵ cells/ml in 10 ml of medium in tissue culture dishes. […] Control cultures were treated with the same concentration of ethanol. After four days (96 hr) of incubation with test compounds, the cells were harvested from these culture dishes and cell number and viability were determined. […] After incubation of this mixture for 1 hr at 37°C, the number of phagocytic cells was counted (as determined by the trypan blue stained yeast appearing intracellularly) and expressed as a percent of the total viable cells present. […] After standing in a water bath for 30 min, the differentiated cells (i.e. the cells showing formazan blue deposits indicative of NBT reduction) were counted with a hemocytometer and expressed as the percent of total viable cells present.

[3] = system: human promyelocytic leukemia cells (HL-60 cells); test: Phagocytosis assay for differentiation activity; assay type: cell-based; conditions: four days (96 hr) incubation
Experimental: as §1, §2

Row | SMILES | Serum Calcium Concentration [1] | EC60 [2] [nM] | EC50 ([3]; Homo sapiens, HL-60, phagocytosis assay, read-out: concentration to achieve 50% differentiation) [nM] | differentiation (% phagocytic cells) ([3]; concentration of 10⁻⁸ molar)
1 | C=C1/C(=C\C=C2/CCC[C@]3(C)[C@@H]([C@H](C)CCCC(C)(O)CC)CC[C@@H]23)C[C@@H](O)C[C@@H]1O (stereo partly drawn) [1α,25-(OH)₂-26-homo-D₃, (25ξ)-1α,25-Dihydroxy-26-homovitamin D₃] | 4.6 ± 0.2 ^b^) mg/100 ml |  |  | 
2 | C=C1/C(=C\C=C2/CCC[C@]3(C)[C@@H]([C@H](C)/C=C/CC(C)(O)CC)CC[C@@H]23)C[C@@H](O)C[C@@H]1O (stereo partly drawn) [1α,25-(OH)₂-(22E)Δ²²-26-homo-D₃, (22E,25ξ)-1α,25-Dihydroxy-22-dehydro-26-homovitamin D₃] | 4.6 ± 0.3 ^b^) mg/100 ml |  |  | 
3 | C=C1/C(=C\C=C2/CCC[C@]3(C)[C@@H]([C@H](C)CCCC(C)(C)O)CC[C@@H]23)C[C@@H](O)C[C@@H]1O [1α,25-(OH)₂D₃, 1α,25-dihydroxyvitamin D₃] | 4.5 ± 0.2 ^b^) mg/100 ml | 35 | ~10 | about 47%
